Here are results for one compound from patent publication US20240009170A1, “INHIBITION OF GLYCOGEN SYNTHASE KINASE-3 (GSK-3)” (Brown University, priority 2020, published 2024).

What all share (format): cell-based, Human
For data set [1], the system named is healthy donor-derived CD8+ T cells. The data set is described as follows: Cytokine profile of immune cell culture supernatant, donor-derived CD8+ T cells. The conditions noted are these: 1 μM, 48 hours. As for the experimental part:
Isolation of donor derived CD8+ T cells. An Easy Step Human CD8+ T Cell Isolation Kit was used to isolated CD8+ T cells from a donor PBMC sample via negative selection (Cat #, 17913, Stem Cell Technologies, Vancouver, Canada).
Collection of cell culture supernatants used in cytokine measurements. Cells were plated at 3.5×10^4 cells in a 48-well plate (Thermo Fisher Scientific, Waltham, MA, USA) in complete medium and incubated at 37° C. with 5% CO2. At twenty-four hours after plating, almost all the tumor cells were adherent to the bottom of the flask and the complete medium was replaced with drug-containing medium. Subsequently, the culture supernatants were collected after forty-eight hours of incubation and were frozen at −80° C. until the measurement of cytokines was performed. The day of analysis, samples were thawed and centrifuged to remove cellular debris.
Human cytokine profiling. Human cell line culture supernatants were analyzed using an R&D systems Human Premixed Multi-Analyte Kit (R&D Systems, Inc., Minneapolis, MN, USA) and a Luminex 200 Instrument (LX200-XPON-RUO, Luminex Corporation, Austin, TX, USA) according to the manufacturer's instructions. […]
9-ING-41 increases secreted cytotoxic proteins IFN-v, Granzyme B, and TRAIL in immune cells. […] Here, the inventors determined how 9-ING-41 treatment impacts the immune cell cytokinome. […]

Data set [2] relates to HCT-116 colorectal cancer cells. The data set is described as follows: Co-culture of HCT-116 and TALL-104 cells with or without αPD-1 therapy. As to conditions: compared with the other culture conditions. As for the experimental part:
Immune cell co-culture experiments. Co-culture experiments were conducted with GFP+ SW480 or HCT-116 colorectal cancer cells and either NK-92 natural killer cells or TALL-104 T cells in a 48-well plate, in the presence or absence of 9-ING-41. HCT-116 cells were labeled using CellTracker™ Green CMFDA (5-chloromethylfluorescein diacetate), immune cells (NK-92, TALL-104) were labeled using CellTracker™ Blue CMAC Dye (7-amino-4-chloromethylcoumarin), and ethidium homodimer-1 (EthD-1) was used as a marker of cell death (Invitrogen, Thermo Fisher Scientific, Waltham, MA, USA).
9-ING-41 increases tumor cell death in combination with αPD-1 therapy in a co-culture of HCT-116 colorectal cancer cells and immune cells. The inventors were interested in the applicability of GS3K-3 inhibitors such as 9-ING-41 in combination with immune checkpoint blockade. The inventors next performed co-cultures of immune cells (TALL-104, NK-92) and tumor cells (HCT-116) in the presence or absence of 9-ING-41, as well as either pembrolizumab® or nivolumab®, two humanized monoclonal antibodies against PD-1. The inventors evaluated HCT-116 cells in this co-culture model to determine if the 9-ING-41-mediated increase in immune cell-mediated SW480 cell killing could be reproduced in another colorectal cancer cell line.

The test system is the same in data set [3]. The data set is described as follows: Western blot analysis, HCT-116. As for the experimental part:
(§1) Western blot analysis. Cells were plated in a 6-well plate and incubated overnight before the spent media was replaced with drugged media. Drug treatment lasted for indicated durations. Protein was extracted using radioimmunoprecipitation (RIPA) assay buffer (Cat #R0278, Sigma-Aldrich, St. Louis, MO) containing cOmplete™ Mini, EDTA-free Protease Inhibitor Cocktail (Cat #4693159001, Roche, Basel, Switzerland). Denaturing sample buffer was added, samples were boiled at 95 degrees for 10 minutes. An equal amount of protein lysate was electrophoresed through NuPAGE™ 4 to 12%, Bis-Tris, 1.5 mm, Mini Protein Gels (Invitrogen, Waltham, MA, USA) then transferred to PVDF membranes. The PVDF membrane was blocked with 5% non-fat milk (Sigma-Aldrich, St. Louis, MO, USA) in 1× TTBS. Primary antibodies were incubated with the transferred PVDF membrane in blocking buffer at 4° C. overnight. Secondary antibodies used included goat anti-rabbit IgG (H+L) secondary antibody, HRP (Cat #31460, Invitrogen, Waltham, MA, USA) and goat anti-mouse IgG (H+L) secondary antibody, HRP (Cat #31430, Invitrogen, Waltham, MA, USA). Signal was detected using a Syngene Imaging System.
9-ING-41 treatment decreases survival factor expression while increasing PD-L1 levels in colorectal cancer cell lines. To elucidate the mechanism behind the differential effects of 9-ING-41 on either colorectal cancer or immune cells in co-culture and cytokine profiling assays, the inventors performed Western blot analyses on tumor and immune cells treated with 9-ING-41 over a 72-hour time course.
Treating cells from colorectal cancer cell lines with 1 μM 9-ING-41 decreases Surivin, NF-κB p65, and IκBα while increasing PD-L1 levels in, 9-ING-41 treatment of immune cells increases NIK. Western blot analysis of HCT-116 and HT-29 colorectal cancer cells for expression of indicated proteins after increasing durations of 9-ING-41 treatment (0-72 hours). Western blot analysis of TALL-104 T cells for expression of indicated proteins after increasing durations of 9-ING-41 treatment (0-72 hours). Analysis of Mcl-1 expression in HCT-116 colorectal cancer cells and NK-92 natural killer cells after increasing durations of 9-ING-41 treatment.
Background: In western blotting, separated proteins are transferred to a membrane and probed.

For data set [4], the system named is NK-92 natural killer cells. The data set is described as follows: Western blot analysis of Mcl-1, NK-92. The conditions noted are these: through the 48-hour endpoint. As to the method:
as §1
Treating cells from colorectal cancer cell lines with 1 μM 9-ING-41 decreases Surivin, NF-κB p65, and IκBα while increasing PD-L1 levels in, 9-ING-41 treatment of immune cells increases NIK. […]

In the case of `Cn1cc(C2=C(c3coc4ccc(F)cc34)C(=O)NC2=O)c2cc3c(cc21)OCO3` [9-ING-41], in data set [1], the “all three cytotoxic molecules (IFN-γ, granzyme B, TRAIL)” value is “increases”. For the same compound, the “cell death after twenty-four hours of co-culture with TALL-104” value in data set [2] is on record as “even greater amount of cell death”. For the same compound, the IKKR result in data set [3] (1 μM, 0-72 hours) is “No changes”. The “Survivin, NF-κB-inducing kinase (NIK), NF-κB, IKBα, pIKBα, and Bcl-2” value in data set [3] (1 μM, by the 72-hour timepoint) is “decreases”. Also, the cPARP result in data set [3] (1 μM, until the 48-hour timepoint) was “little to no cPARP”. Moreover, in data set [3] (as the treatment duration increased), the PD-L1 expression entry is reported as “increases”. Also, the Mcl-1 protein expression entry in data set [3] (by the 24-hour timepoint) is reported as “marked decreases”; in data set [4] it was “did not observe a significant decrease”.
